# Data taken from ChEMBL document CHEMBL2401721, “BACE1 inhibitors: a head group scan on a series of amides” (Bioorg Med Chem Lett, 2013).
# Legend:
# [1] = Dissociation constant, pKa of the compound by capillary electrophoresis; format: physicochemical
# [2] = Drug uptake in wild-type C57Bl/6J mouse brain at 30 mg/kg, po after 4 hrs; format: ADME, organism-based; design: dose 30 mg/kg, route oral; conditions: read-out: Drug uptake
# [3] = Plasma concentration in wild-type C57Bl/6J mouse at 30 mg/kg, po after 4 hrs; format: ADME, organism-based; design: dose 30 mg/kg, route oral
# [4] = Ratio of drug level in brain to plasma in wild-type C57Bl/6J mouse at 30 mg/kg, po after 4 hrs; format: ADME, organism-based; design: dose 30 mg/kg, route oral; conditions: read-out: BPR
pKa [1],concentration at 4 h [2],concentration at 4 h [3],Kp at 4 h [4],Structure (SMILES)
8.3,–,–,–,C[C@@]1(c2cccc(NC(=O)c3ccc(Cl)cn3)c2)COC(N)=N1
8.3,–,–,–,CC1(c2cccc(NC(=O)c3ccccn3)c2)CSC(N)=N1 (centres undefined)
7.3,–,–,–,CN1C(=O)C(C)(c2cccc(NC(=O)c3ccc(Cl)cn3)c2)N=C1N (centres undefined)
9.7,–,–,–,C[C@]1(c2cccc(NC(=O)c3ccc(Cl)cn3)c2)N=C(N)c2ccccc21
8.3,–,–,–,NC1=NC2(CCc3ccc(NC(=O)c4ccc(Cl)cn4)cc32)CO1 (centres undefined)
8.3,–,–,–,NC1=NC2(CCc3ccc(NC(=O)c4ccc(Cl)cn4)cc32)CS1 (centres undefined)
> 11,< 13 ng/g,< 3 ng/mL,–,CN1CC[C@@](C)(c2cc(NC(=O)c3ccc(Cl)cn3)ccc2F)N=C1N
> 11,8 ng/g,81 ng/mL,0.1,C[C@@]1(c2cc(NC(=O)c3ccc(Cl)cn3)ccc2F)CCC2(CC2)C(N)=N1
10.4,–,–,–,C[C@@]1(c2cc(NC(=O)c3ccc(Cl)cn3)ccc2F)CCCOC(N)=N1
